Experimental data published in patent US9181181B2, “2-substituted-3-phenylpropionic acid derivatives and their use in the treatment of inflammatory bowel disease” (Albireo AB, priority 2007, dated 2015).

What was measured:
human PPARalpha = human PPARalpha (Homo sapiens (Human), UniProt Q07869); assay: Transactivation (reporter gene) assay, GAL4-PPARalpha LBD in U-2 OS cells; assay type: cell-based; conditions: 40 h incubation, 16 μM ETYA as 100% control, read-out: EC50 PPARα
Procedure: (§1) Transactivation Assay Expression vectors were prepared by inserting the ligand binding domain cDNA (complementary DNA) of human PPARalpha (amino acid 168-468) and human PPARgamma (amino acid 205-505), 3′ to and in frame with, the yeast GAL4 transcription factor DNA binding domain and the nuclear localization signal from the T-antigen of Polyoma Virus into the mammalian expression vector pSGS (Stratagene). The resulting expression vectors pSGGAL-PPARalpha and pSGGAL-PPARgamma were used in co-transfection experiments together with a modified pGL3 promoter plasmid (Promega) containing five copies of the UAS GAL4 recognition site. 2.5 μg pSGGAL-PPARalpha or pSGGAL-PPARgamma were mixed with 25 μg pGL3p […] and 22.5 μg pBluescript (Stratagene) in 0.95 mL ice cold PBS containing between 9-12 million U-2 OS (human osteosarcoma) cells. The cell/DNA mixture was incubated on ice for 5 minutes and then divided between two 0.4 cm cuvettes and electroporated at 960 μF, 230 V using a BioRad electroporator. The two electroporation mixes were combined in assay medium [Dulbecco's Modified Eagle Medium w/o phenol red, (Gibco 11880-028) including 10% FBS (Foetal Bovine Serum), 1% PEST (Penicillin & Streptomycin), 20 mM Hepes, 2 mM L-Glutamine and 0.36% Glucose (Gibco 31966-021)] at 0.32 million cells/ml. 25 μl diluted, electroporated cells, were seeded into 384-well plates and allowed to adhere for 3-4 h at 37° C., 5% CO2 in a cell culture incubator. Test compounds in DMSO were diluted 40 fold in assay medium. 7 μl of diluted compound was added to the adhered electroporated cells and incubation was continued for 40 h in a cell culture incubator. Cells were lysed by adding 32 μl/well LucLite (Packard) and incubated at room temperature for 15 minutes. Luciferase activity was measured using a luminometry protocol on a Wallac Victor2 plate reader. 16 μM ETYA was used as the 100% control for humanPPARalpha activity and 16 μM Pioglitazone was used as the 100% control for humanPPARgamma activity. In Vivo Assay Determination of Plasma Clearance and Oral Bioavailability in Hamster or Mouse

human PPARgamma = human PPARgamma (Homo sapiens (Human), UniProt P37231); assay: Transactivation (reporter gene) assay, GAL4-PPARgamma LBD in U-2 OS cells; assay type: cell-based; conditions: 40 h incubation, 16 μM Pioglitazone as 100% control, read-out: EC50 PPARγ
Chain of human PPARgamma (P37231 205-505): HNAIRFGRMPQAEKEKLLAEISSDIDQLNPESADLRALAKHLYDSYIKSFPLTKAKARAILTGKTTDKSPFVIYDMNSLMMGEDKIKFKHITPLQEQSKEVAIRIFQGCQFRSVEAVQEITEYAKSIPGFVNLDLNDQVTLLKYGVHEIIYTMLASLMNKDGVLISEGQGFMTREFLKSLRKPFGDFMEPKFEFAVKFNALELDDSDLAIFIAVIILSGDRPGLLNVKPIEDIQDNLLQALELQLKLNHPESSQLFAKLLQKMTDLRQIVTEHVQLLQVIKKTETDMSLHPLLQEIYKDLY
Procedure: as §1

Chain of human PPARalpha (Q07869 168-468): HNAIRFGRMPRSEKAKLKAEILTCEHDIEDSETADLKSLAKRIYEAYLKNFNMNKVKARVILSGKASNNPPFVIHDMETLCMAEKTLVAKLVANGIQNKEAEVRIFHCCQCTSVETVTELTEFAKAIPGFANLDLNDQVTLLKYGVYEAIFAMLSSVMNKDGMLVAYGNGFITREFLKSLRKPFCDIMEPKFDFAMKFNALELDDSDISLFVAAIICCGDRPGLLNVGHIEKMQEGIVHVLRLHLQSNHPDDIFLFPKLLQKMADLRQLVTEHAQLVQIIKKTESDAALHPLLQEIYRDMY

Structure (SMILES)	EC50 (human PPARalpha) [µM]	EC50 (human PPARgamma) [µM]
O=C(Cc1ccc(C(F)(F)F)cc1)OCc1ccc(SCc2ccccc2C(=O)O)cc1 [Example 29, 2-{4-[2-(4-Trifluoromethyl-phenyl)-acetoxymethyl]-phenylsulfanylmethyl}-benzoic acid]	0.029	0.76
O=C(Cc1ccc(SCc2ccccc2C(=O)O)cc1)OCc1ccc(C(F)(F)F)cc1 [Example 30, 2-[4-(4-Trifluoromethyl-benzyloxycarbonylmethyl)-phenylsulfanylmethyl]-benzoic acid]	0.16	1.7
CC(OC(=O)Cc1cccc(SCc2ccccc2C(=O)O)c1)c1ccc(C(F)(F)F)cc1 (stereo not drawn) [Example 31, 2-{3-[1-(4-Trifluoromethyl-phenyl)-ethoxycarbonylmethyl]phenylsulfanylmethyl}-benzoic acid]	18	3.5
O=C(Cc1cccc(SCc2ccccc2C(=O)O)c1)OCCc1ccc(C(F)(F)F)cc1 [Example 32, 2-{3-[2-(4-Trifluoromethyl-phenyl)-ethoxycarbonylmethyl]-phenylsulfanylmethyl}-benzoic acid]	5.5	3
Cc1cccc(C)c1COC(=O)Cc1ccc(SCc2ccccc2C(=O)O)cc1 [Example 33, 2-[4-(2,6-Dimethyl-benzyloxycarbonylmethyl)-phenylsulfanylmethyl]-benzoic acid]	0.62	18
C=CCC(OC(=O)Cc1ccc(SCc2ccccc2C(=O)O)cc1)c1ccccc1 (stereo not drawn) [Example 34, 2-[4-(1-Phenyl-but-3-enyloxycarbonylmethyl)-phenylsulfanylmethyl]-benzoic acid]	18	15
COC(=O)C(Cc1ccccc1)OC(=O)Cc1cccc(SCc2ccccc2C(=O)O)c1 (stereo not drawn) [Example 35, 2-[3-(1-Methoxycarbonyl-2-phenyl-ethoxycarbonylmethyl)-phenylsulfanylmethyl]-benzoic acid]	22	6
COc1ccc(CCOC(=O)Cc2ccc(SCc3ccccc3C(=O)O)cc2)cc1OC [Example 36, 2-{4-[2-(3,4-Dimethoxy-phenyl)-ethoxycarbonylmethyl]-phenylsulfanylmethyl}-benzoic acid]	21	7
COC(=O)C(Cc1ccccc1)OC(=O)Cc1ccc(SCc2ccccc2C(=O)O)cc1 (stereo not drawn) [Example 37, 2-[4-(1-Methoxycarbonyl-2-phenylethoxycarbonylmethyl)phenylsulfanylmethyl]-benzoic acid]	2.2	3.9
O=C(Cc1cccc(SCc2ccccc2C(=O)O)c1)OCCc1ccccc1C(F)(F)F [Example 38, 2-{3-[2-(2-Trifluoromethylphenyl)ethoxycarbonylmethyl]phenylsulfanylmethyl}-benzoic acid]	3.8	9
O=C(Cc1ccc(SCc2ccccc2C(=O)O)cc1)OCCc1ccccc1C(F)(F)F [Example 40, 2-{4-[2-(2-Trifluoromethylphenyl)ethoxycarbonylmethyl]phenylsulfanylmethyl}-benzoic acid]	0.76	8.2
Cc1cccc(C)c1COC(=O)Cc1cccc(SCc2ccccc2C(=O)O)c1 [Example 41, 2-[3-(2,6-Dimethyl-benzyloxycarbonylmethyl)-phenylsulfanylmethyl]-benzoic acid]	15	3.8
O=C(Cc1cccc(SCc2ccccc2C(=O)O)c1)OCc1ccc(-n2cccn2)cc1 [Example 42, 2-[3-(4-Pyrazol-1-yl-benzyloxycarbonylmethyl)-phenylsulfanylmethyl]-benzoic acid]	18	4.2
O=C(Cc1ccc(SCc2ccccc2C(=O)O)cc1)OCc1ccc(-n2cccn2)cc1 [Example 43, 2-[4-(4-Pyrazol-1-yl-benzyloxycarbonylmethyl)-phenylsulfanylmethyl]-benzoic acid]	16	4.2
COc1ccc(CCOC(=O)Cc2cccc(SCc3ccccc3C(=O)O)c2)cc1OC [Example 44, 2-{3-[2-(3,4-Dimethoxy-phenyl)-ethoxycarbonylmethyl]-phenylsulfanylmethyl}-benzoic acid]	18	11
